Measured values reported in BindingDB's records for doi:10.1186/s12858-015-0048-3 (Texas Wesleyan University, 2015).
Where “and” joins values, the source holds several entries; their conditions need not be identical. Identical values can stand only once.

Molecular target: T1, Dual specificity protein phosphatase 5 [180-384] (Homo sapiens, UniProt Q16690)
T1 construct: 180-384
T1 sequence (Q16690 whole entry): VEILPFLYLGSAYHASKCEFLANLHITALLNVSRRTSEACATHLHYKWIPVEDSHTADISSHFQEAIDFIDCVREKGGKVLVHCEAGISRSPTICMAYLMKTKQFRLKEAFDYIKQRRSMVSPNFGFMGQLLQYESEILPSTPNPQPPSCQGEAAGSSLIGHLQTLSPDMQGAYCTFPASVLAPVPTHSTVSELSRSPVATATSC
Assay: p-NPP Assay
Details: 25 °C
Method: For the 96-well plate validation assay, sodium orthovanadate (Sigma Aldrich) was utilized as a positive control for inhibition [Swarup et al., Biochem. Biophys. Res. Commun., 107:1104-9] at a final concentration of 10 μM, to completely block DUSP5(WT) enzymatic activity. All plate assays were performed in standard 96-well clearbottom plates (Thermo Scientific Nunc) with a total assay volume of 200 μL, using a SpectraMax M5 Microplate Reader (Molecular Devices). The plate validation assay was performed with replicate columns of positive control wells, negative control wells and blank wells. Blank columns contained only buffer and pNPP. Negative control (uninhibited) contained buffer, pNPP, and DUSP5PD(WT); and, positive control contained the same components,but also contained 10 μM sodium orthovanadate. The plate was then shaken and allowed to equilibrate in the spectrophotometer at 25 °C for 30 min. After incubation, 4 μL of a 50 μM enzyme stock was dispensed into appropriate wells utilizing a single-channel pipette. This produced a final enzyme concentration of1 μM. Before a read was taken, the plate was shaken for five seconds. The initial rate for the DUSP5PD(WT) reaction was linear for approximately 90 min;and, the plate was kept in the spectrophotometer at 25 °C for an additional 80 min after the kinetic read. The endpoint reading was subsequently taken at 90 min after initiation of reaction.

| Compound | IC50 |
| --- | --- |
| O=S(=O)(O)c1ccc2[nH]c3c(S(=O)(=O)O)cc(S(=O)(=O)O)cc3c2c1 [RR505] | 5.1 mM and 26 mM |
| Cc1ccc(C(=O)Nc2ccc(S(=O)(=O)O)c3cc(S(=O)(=O)O)cc(S(=O)(=O)O)c23)cc1NC(=O)c1cccc(NC(=O)Nc2cccc(C(=O)Nc3cc(C(=O)Nc4ccc(S(=O)(=O)O)c5cc(S(=O)(=O)O)cc(S(=O)(=O)O)c45)ccc3C)c2)c1 [Suramin hexasodium] | 0.044 mM |
| O=S(=O)(O)c1ccc2c(S(=O)(=O)O)cc(S(=O)(=O)O)cc2c1 [naphthalene-1,3,6-trisulfonate(3-)] | 6.4 mM |
